Experiments:
MV4-11 cells = assay: Antiproliferative activity, MTT assay; assay type: cell-based, human
Experimental: (§1) Human biphenotypic B myelomonocytic leukemia MV4-11, human colon cancer LoVo cell line and normal mouse fibroblast BALB/3T3 cells were obtained from American Type Culture Collection (Rockville, Maryland, USA), human lung carcinoma A549 cells were obtained from European Collection of Authenticated Cell Cultures (UK). All the cell lines are being maintained at the Hirszfeld Institute of Immunology and Experimental Therapy, PAS, Wroclaw, Poland and were cultured according the procedure described before.
(§2) Cell lines were cultured according to the protocol described before. MV4-11 cells were cultured in RPMI 1640 medium (Gibco, UK) with 1.0 mM sodium pyruvate, and 10% fetal bovine serum (FBS) (all from Sigma-Aldrich, Germany). A549, LoVo and LoVo/DX cells were cultured in RPMI 1640 + Opti-MEM (1:1) (both from Gibco, UK) supplemented with 5% fetal bovine serum, 1.0 mM sodium pyruvate (LoVo and LoVo/DX cells) (all from Sigma Aldrich Germany) and 0.1 μg/mL doxorubicin chloride (Accord) (only LoVo/DX cells). BALB/3T3 cells in Dulbecco medium (IIET, Poland) supplemented with 10% fetal bovine serum (Sigma-Aldrich, Germany). All culture media were supplemented with 2 mM L-glutamine (Sigma-Aldrich, Germany), 100 units/mL penicillin, and 100 µg/mL streptomycin (both from Polfa Tarchomin S.A., Poland). All cell lines were grown at 37 °C with 5% CO2 humidified atmosphere.
(§3) The solutions of the compounds (50 mM) were prepared by dissolving the substances in DMSO (Sigma Aldrich, Germany). Then the tested compounds were diluted in culture medium to reach the final concentrations of 625, 125, 25 and 5 μM. Before adding of the tested compounds (24 h prior), the cells were plated in 96-well plates (Sarstedt, Germany) at a density of 1 × 10^4 or 0.5 × 10^4 (A549) cells per well. The assay was performed after 72 h of exposure to 625, 125, 25 and 5 μM of the tested agents. The in vitro cytotoxic effect of all agents was examined using the MTT (MV4-11) or SRB assay, described previously. The results were calculated as an IC50 (inhibitory concentration 50%) the concentration of tested agent, which is cytotoxic for 50% of the cancer cells. Each compound in each concentration was tested in triplicate in a single experiment, which was repeated 3–5 times.

A549 cells = assay: Antiproliferative activity, SRB assay; assay type: cell-based, human
Experimental: as §1, §2, §3

LoVo cells = assay: Antiproliferative activity, SRB assay; assay type: cell-based, human; conditions: for IC50: 72 h exposure, SRB, mean ± SD, n.a = no activity in concentration of 5, 25, 125, 625 μM
Experimental: as §1, §2, §3

LoVo/DX cells = assay: Antiproliferative activity, SRB assay, doxorubicin resistant subline; assay type: cell-based, human
Experimental: Cell lines were cultured according to the protocol described before. […] All culture media were supplemented with 2 mM L-glutamine (Sigma-Aldrich, Germany), 100 units/mL penicillin, and 100 µg/mL streptomycin (both from Polfa Tarchomin S.A., Poland). All cell lines were grown at 37 °C with 5% CO2 humidified atmosphere. The solutions of the compounds (50 mM) were prepared by dissolving the substances in DMSO (Sigma Aldrich, Germany). […] The in vitro cytotoxic effect of all agents was examined using the MTT (MV4-11) or SRB assay, described previously. […] Each compound in each concentration was tested in triplicate in a single experiment, which was repeated 3–5 times.

BALB/3T3 cells = assay: Toxicity towards normal fibroblasts, SRB assay; assay type: cell-based; conditions: normal mouse fibroblasts, 72 h exposure, mean ± SD, n.a = no activity in concentration of 5, 25, 125, 625 μM
Experimental: as §1, §2, §3

Myzus persicae [1] = assay: Aphid settling (choice test) on treated vs control leaves of Brassica rapa subsp. pekinensis; assay type: in vivo; conditions: 0.1% solution in 70% ethanol, mean (± SD), n = 8, 20 aphids/replicate
Experimental: (§4) The peach potato aphids Myzus persicae (Sulzer) and the Chinese cabbage Brassica rapa subsp. pekinensis (Lour.) Hanelt were reared in laboratory at 20 °C, 65% r.h., and L16:8D photoperiod. One to seven days old apterous females of M. persicae and 3-week old plants with 4–5 fully developed leaves were used for experiments. M. persicae were obtained from the laboratory culture maintained at the Department of Botany and Ecology for many generations since 2000. All experiments were carried out under the same conditions of temperature, relative humidity, and photoperiod. The bioassays were started at 10–11.a.m. Each compound was dissolved in 70% ethanol to obtain the recommended 0.1% solution[40]. All compounds were applied on the adaxial and abaxial leaf surfaces by immersing a leaf in the ethanolic solution of a given compound for 30 s.[20]. Control leaves of similar size were immersed in 70% ethanol that was used as a solvent for the studied compounds. Experiments were performed 1 h after the compounds application to allow the evaporation of the solvent. Every plant and aphid were used only once.
This bioassay allows the study of aphid host preferences under semi-natural conditions. In the present study, aphids were given free choice between control and treated excised leaves that were placed in a Petri dish. Aphids were placed in the dish equidistance from treated and untreated leaves, so that aphids could choose between treated (on one half of a Petri dish) and control leaves (on the other half of the dish). […] Each experiment was replicated 8 times (n = 8 replicates, 20 viviparous apterous females/replicate). Aphids that were moving or not on any of the leaves were not counted.
The data of the choice-test were analyzed using Student’s t-test (STATISTICA 13.1. package). […] If aphids settled mainly on the control leaf (p < 0.05), the compound tested in the respective choice-test was stated a deterrent. From the data thus obtained the relative index of deterrence (DI) was calculated: DI = (C − T/C + T) where C was the number of aphids settled on control leaf, T was the number of aphids settled on the leaf treated with the tested compound. The value of DI ranged between 1 (ideal deterrent) and − 1 (ideal attractant)[41].

Myzus persicae [2] = assay: EPG monitoring of aphid probing and feeding (no-choice test); assay type: in vivo; conditions: 8-h EPG
Experimental: as §4
Aphid probing and the phloem sap uptake by M. persicae was monitored using the technique of electronic registration of aphid probing in plant tissues, known as EPG (= Electrical Penetration Graph), that is frequently employed in insect–plant relationship studies considering insects with sucking-piercing mouthparts[42]–[44]. In this experimental set-up, aphid and plant are connected to electrodes and thus made parts of an electric circuit, which is completed when the aphid inserts its stylets into the plant. Weak voltage is supplied in the circuit, and all changing electric properties are recorded as EPG waveforms that can be correlated with aphid activities and stylet position in plant tissues[45],[46]. The parameters describing aphid behaviour during probing and feeding, such as total time of probing, proportion of phloem patterns E1 and E2, number of probes, etc., are good indicators of plant suitability or interference of probing by chemical or physical factors in individual plant tissues[44]–[46]. In the present study, aphids were attached to a golden wire electrode with conductive silver paint (epgsystems. eu) and starved for 1 h prior to the experiment. Probing behaviour of 12 apterous females/studied compound and control was monitored for 8 h continuously with Giga-4 and Giga-8 DC EPG with 1 GΩ of input resistance recording equipment (EPG Systems, Wageningen, The Netherlands). Each aphid was given access to a freshly prepared plant and each aphid/plant combination was used only once. Various behavioural phases were labelled manually using the Stylet + software (www.epgsystems.eu). The following aphid behaviours were distinguished: no penetration (waveform 'np' – aphid stylets outside the plant), pathway phase—penetration of non-phloem tissues (waveforms 'ABC'), phloem phase (salivation into sieve elements, waveform ‘E1’ and ingestion of phloem sap, waveform ‘E2’), and xylem phase (ingestion of xylem sap, waveform 'G'). Waveform ‘G’ occurred rarely irrespective of the treatment. Therefore, in all calculations the xylem phase was added to the pathway phase and termed as probing in non-phloem tissues. The E1/E2 transition patterns were included in E2. Waveform patterns that were not terminated before the end of the experimental period (8 h) were not excluded from the calculations. The parameters derived from EPG recordings were analyzed according to their frequency and duration in configuration related to activities in peripheral and vascular tissues.
All statistical calculations related to data of the no-choice test were performed using StatSoft, Inc. (2014) STATISTICA (data analysis software system), version 12, www.statsoft.com. […]

[3] = tested on: caspase-3/7 in MV4-11 cells; assay: Caspase-3/7 activity determination (Ac-DEVD-ACC substrate); assay type: cell-based, human; conditions: MV4-11, 75 µM, 72 h
Experimental: Caspase-3/7 activity determination was performed according to the protocol previously described. The MV4-11 cells were seeded at the density of 1 × 10^5 cells/mL of culture medium on 24-well plates (Sarstedt, Germany) to the final volume of 2 mL. The cells were exposed to the test compounds at concentrations 75 μM or campthothecin (0.05 μg/mL) as a positive control, for 72 h. After 72 h of the incubation, the cells were collected and centrifuged (5 min., 4 °C, 250×g). Cells were suspended in 50 µL of ice-cold lysis buffer (50 mM HEPES, 10% (w/v) sucrose, 150 mM NaCl, 2 mM EDTA, 1% (v/v) Triton X-100, pH 7.3, IIET, Poland) and incubated 30 min. at 4 °C. After the incubation, 40 µL of each sample was transferred to a white, 96-well plate (Corning, USA) containing 160 µL of the reaction buffer (20 mM HEPES, 10% sucrose, 100 mM NaCl, 1 mM EDTA, 10 mM DTT, 0.02% Trition X-100, pH 7.3) (IIET, Wroclaw, Poland) with 9 µM Ac-DEVD-ACC fluorogenic substrate (λex = 360 nm, λem = 460 nm). The fluorescence increase correlated with the caspase-3/7 level was continuously recorded at 37 °C for 120 min using a Biotek Synergy H4 (Biokom, Warsaw, Poland). Compounds were tested in duplicates in single experiment and each experiment was repeated at least three times independently. Results were normalized to the number of cells in each well and are reported as mean relative caspase-3/7 activity compared to untreated control sample ± SD.

[4] = 72 h exposure, SRB, mean ± SD, n.a = no activity in concentration of 5, 25, 125, 625 μM
[5] = 0.1% solution, mean ± SE, n = 12
[6] = activities in non-phloem tissues, mean ± SE, n = 10-12
[7] = activities in sieve elements, mean ± SE, n = 10-12

N.N.[Cl][Pt][Cl] [Cisplatin, reference compound]
IC50 (MV4-11 cells; 72 h exposure, MTT, mean ± SD, n.a = no activity in concentration of 5, 25, 125, 625 μM): 2.88 ± 0.83 µM | Selectivity index SI, MV4-11 (MV4-11 cells; SI = IC50 BALB/3T3 / IC50 MV4-11): 1.54 | IC50 (A549 cells; [4]): 3.97 ± 1.08 µM | Selectivity index SI, A549 (A549 cells; SI = IC50 BALB/3T3 / IC50 A549): 1.12 | IC50 (LoVo cells): 5.55 ± 0.12 µM | Selectivity index SI, LoVo (LoVo cells; SI = IC50 BALB/3T3 / IC50 LoVo): 0.80 | IC50 (LoVo/DX cells; [4]): 3.45 ± 1.01 µM | IR (index of resistance) (LoVo/DX cells; IR = IC50 against resistant LoVo/DX / IC50 against non-resistant LoVo, 0 < IR < 2 able to overcome drug resistance): 0.62 | Selectivity index SI, LoVo/DX (LoVo/DX cells; SI = IC50 BALB/3T3 / IC50 LoVo/DX): 1.29 | IC50 (BALB/3T3 cells): 4.44 ± 2.36 µM

COc1cccc2c1C(=O)c1c(O)c3c(c(O)c1C2=O)C[C@@](O)(C(=O)CO)C[C@@H]3O[C@H]1C[C@H](N)[C@H](O)[C@H](C)O1 [Doxorubicin]
IC50 (LoVo cells; Homo sapiens, LoVo): 0.12 ± 0.01 µM

C=CC(C)(CCCC(C)CCCC(C)CCCC(C)C)CC(=O)OCC (stereo not shown) [compound 2, ethyl 3,7,11,15-tetramethyl-3-vinylhexadecanoate]
Mean number of aphids settled on treated (test) leaf (Myzus persicae [1]; 1 h after access): 10.8 (± 1.7) | Mean number of aphids settled on treated (test) leaf (Myzus persicae [1]; 2 h after access): 8.9 (± 0.9) | Mean number of aphids settled on treated (test) leaf (Myzus persicae [1]; 24 h after access): 9.6 (± 1.6) | Mean duration of probing (C + G + E) (Myzus persicae [2]; [5]): 1.4 ± 0.6 h | Number of probes (Myzus persicae [2]; [5]): 17.6 ± 4.1 | Total duration of pathway (C) (Myzus persicae [2]; [5]): 4.7 ± 0.8 h | Total duration of phloem phase (E) (Myzus persicae [2]; [5]): 2.4 ± 0.8 h | Total duration of probing (C + G + E) (Myzus persicae [2]; [5]): 7.3 ± 0.2 h | Number of probes before first phloem phase (Myzus persicae [2]; [6]): 14.9 ± 4.1 | Time from first probe to first phloem phase (Myzus persicae [2]; [6]): 2.9 ± 0.8 h | Duration of first phloem phase (Myzus persicae [2]; [7]): 2.0 ± 0.8 h | Total duration of phloem salivation E1 (Myzus persicae [2]; [7]): 2.4 ± 1.2 min | Total duration of phloem sap ingestion E2 (Myzus persicae [2]; [7]): 2.4 ± 0.8 h | Number of probes < 3 min (Myzus persicae [2]; before first phloem phase, mean ± SE, n = 10-12): 9.1 ± 2.7 | Proportion of salivation in phloem phase (Myzus persicae [2]; (duration of E1 / duration of E1 + E2)*100): 7.9% | Proportion of phloem phase in total probing (Myzus persicae [2]; index = duration of phloem phase E / duration of probing C + G + E): 32.0% | Increase of caspase-3/7 activity compared to the control [3]: about 1.5 times
